Patent publication US20230136702A1, “Inhibitors of Human Herpesviruses” (The Governors of the University of Alberta, priority 2020, published 2023)
Like-named read-outs stand apart in the source and are kept apart here.

How the values were obtained:
[1] = Cytotoxicity in MRC5 cells without virus infection (CCK8); type: cell-based; conditions: human
Method: (§1) Exemplary compounds (e.g., as described herein) were prepared as 20 mM stock solutions with DMSO. Reference compound was ganciclovir (Sigma). Compounds were tested at 8 concentrations, 3-fold serial dilutions, in duplicate for EC50 and CC50 determinations. The highest testing concentrations of the exemplary compounds and reference compound were 40 μM and 100 μM, respectively. The final concentration of DMSO in the cell culture was 0.5%.
(§2) MRC5 cells (ATCC CCL-171) was obtained from the ATCC and maintained in the EMEM (Sigma) supplemented with 10% FBS (HyClone), 1% L-glutamine (Gibco), 1% NEAA (Gibco), and 1% PS (Hyclone). Reagent:
Cytotoxicity of the compounds was assessed under the same conditions, but without virus infection, in parallel. Cell viability was measured with CCK8 following the manufacturer's manual. CC50 values were then calculated based on cytotoxicity at the test concentrations normalized by the medium control (medium only).
(§3) Antiviral activity and cytotoxicity of the compounds were expressed as % Inhibition and % Viability, respectively, and calculated with the formulas below:
Viability (%)=(Raw dataCPD−AverageMC)/(AverageCC−AverageMC)*100
(§4) Raw dataCPD indicates the values of the compound-treated wells; AverageVC, AverageCC and AverageMC indicate the average values of the virus control (cells infected with virus, without compound treatment), cell control and medium control wells, respectively.
(§5) EC50 and CC50 values were calculated using the GraphPad Prism software.

hERG potassium channel = target: T1, hERG potassium channel (Homo sapiens, UniProt Q12809); experiment: Inhibition of hERG potassium channel, automated patch clamp (SyncroPatch 384PE) in CHO cells; type: cell-based
T1 construct: host or cells: CHO cells stably expressing hERG
Method: This automated patch clamp method (SyncroPatch 384PE) CHO cells stably expressing hERG potassium channels from Sophion Biosciences were used for this test.
The cells were cultured in a humidified and air-controlled (5% C02) incubator at 37° C.
The CHO cells which were at least two days after plating and more than 75% confluent would be used for experiments. Before testing, cells were harvested using TrypLE and resuspended in the physiological solution at the room temperature.
For the electrophysiological recordings the following solutions were used (Table 5). The physiological solution and external solution were prepared at least one month. The intracellular solution was prepared in batches aliquoted, and stored at 4° C. until used.
Exemplary compounds (e.g., as described herein) were dissolved in 100% DMSO to obtain stock solutions for different test concentrations. Then the stock solutions were further diluted into external solution to achieve final concentrations for testing. Visual check for precipitation was conducted before testing. Final DMSO concentration in external solution was not more than 0.30% for the compounds.
From this holding potential of −80 mV, the voltage was first stepped to −50 mV for 80 ms for leak subtraction, and then stepped to +20 mV for 4800 ms to open hERG channels. After that, the voltage was stepped back down to −50 mV for 5000 ms, causing a “rebound” or tail current, which was measured and collected for data analysis. Finally, the voltage was stepped back to the holding potential (−80 mV, 1000 ms). This voltage command protocol was repeated every 20000 msec. This command protocol was performed continuously during the test (vehicle control and test compound).
hERG SyncroPatch assay was conducted at room temperature. The Setup, Prime Chip, Catch and Seal Cells, Amplifier Settings, Voltage and Application Protocols were established with Biomek Software (Nanion).
One addition of 40 μL of the vehicle was applied, followed by 300s for a baseline period. Then the doses of exemplary test compounds were added with 40 μL. The exposure of test compound at each concentration was no less than 300s. […] Five concentrations (0.494 μM, 1.48 μM, 4.44 μM, 13.33 μM and 40.00 μM) were tested for each compound. Minimum 2 replicates per concentration were obtained.
Within each well recording, percent of control values were calculated for each test compound concentration current response based on peak current in presence of reference control (current response/peak current)×100%. The Dose-Response curves were fit to the standard Hill equation as shown below:
Ipost cpd/Ipre cpd=Bottom+(Top−Bottom)/(1+10^((Log IC50−X)*HillSlope))
Where X is the logarithm of concentration, Ipost cpd/Ipre cpd is the normalized peak current amplitude, Top is 1 and Bottom is equal to 0.
Curve-fitting and IC50 calculations were performed by GraphPad Prism 5.0. If the inhibition obtained at the lowest concentration tested was over 50%, or at the highest concentration tested was less than 50%, we reported the IC50 as less than lowest concentration, or higher than highest concentration, respectively.

[2] = target: T2, HCMV DNA polymerase (UL54) (Human cytomegalovirus, UniProt P08546); experiment: HCMV DNA polymerase enzyme inhibition assay (ProFoldin, fluorescence); type: biochemical; conditions: 37° C., duplicate, max 40 μM
T2 construct: 6His (C); made in house; host or cells: Sf9 insect cells (baculovirus, pFastBac)
Method: The HCMV DNA polymerase assay was developed by ProFoldin. The assay detects the formation of DNA from the DNA polymerase reaction in the presence of a DNA template, dATP and dGTP. The formation of the DNA is detected by using a fluorescence method. The fluorescence intensity increases when DNA is generated by the enzyme reaction.
A time-course experiment was performed aside the enzyme inhibition assay to ensure the assay was sensitive to the enzyme inhibition. The wells for the time-course experiment contained 1 μL of DMSO and the same reaction mixture as that in the enzyme inhibition assay. The time-course data varied between plates. The reactions were stopped when the fluorescence reached a value of about 3700 for each plate.
Exemplary solid compounds (e.g., as described herein) were dissolved in DMSO to make […] stock solutions. PFA (phosphonoformic acid or phosphonomethanoic acid) was used as a positive control. The compound mother plates were prepared at 50× concentrated compound concentrations with a 2-fold serial dilution. All the exemplary compounds except PFA were diluted in DMSO. PFA was diluted in water. The maximum compound concentration was 2 mM that gave the final concentration of 40 μM in the assay. One microliter of the 50× stock solutions was transferred into the assay plates. Three copies of assay plates were prepared, two for HCMV DNA polymerase assay and one for compound background control.
The following is the protocol for enzyme inhibition performed at 37° C.:
1. Prepared a premix composed of 35347 μL of H2O, 5220 μL of 10× assay buffer and 149 μL of 350×HCMV DNA polymerase.
2. Added 39 μL of the premix into the wells with 1 μL of the compound. Incubated the mixture for at least 5 min.
3. Added 10 μL of 5×dNTP (0.1 mM), 5×DNA template solutions into each well and incubated the solution until the fluorescence value reached a value about 3700 for the DMSO-only control wells.
4. Added 50 μL of the 1× dye into the wells.
5. Read the fluorescence at emission wavelength of 535 nm and excitation wavelength of 485 nm.
For the compound background reading, added 99 μL of water in the wells with 1 μL of compounds and read the fluorescence. […] The 0% inhibition value F0 was from the wells with DMSO (no inhibitor).
The background values were subtracted from the fluorescence reading to get the net fluorescence values. The net fluorescence values were used for calculation of the percentage inhibition.
The assay was performed in duplicate for the test article at […], 1.25, 0.625, 0.313, 0.156 and 0.078 μM. The IC50 curves were obtained by fitting the percentage inhibition values with the compound concentrations using Prism GraphPad software.

[3] = test system: HCMV US3-6-EGFP-HCMV-AD169 strain; experiment: In vitro inhibitory (antiviral) activity against HCMV, GFP reporter in MRC5 cells; type: cell-based, Human cytomegalovirus (HCMV); conditions: Human betaherpesvirus 5, AD169, MRC5, 96 h, read-out: HCMV Antiviral EC50 range
Method: as §1
HCMV US3-6-EGFP-HCMV-AD169 strain was obtained from Institute Pasteur of Shanghai, CAS. The virus contains GFP as a reporter of the viral replication.
as §2
In 96-well plates, MRC5 cells were seeded at 20,000 cells per well and cultured at 37° C. and 5% C02 overnight. Next day, compounds (8 concentrations, 3-fold dilutions, in duplicate) and US3-6-EGFP-HCMV-AD169 (MOI=0.1) were added to the cells. The resulting cultures were incubated at 37° C. and 5% C02 for 4 days. Fluorescence intensity was determined by Acumen Cellista (TTP LabTech). The antiviral activity of each compound was calculated based on the inhibition of expression of GFP at each concentration normalized by the cell control (cells without virus infection or compound treatment).
as §3
Inhibition (%)=100−(Raw dataCPD−AverageCC)/(AverageVC−AverageCC)*100
as §4, §5

[4] = CHO cells stably expressing hERG, room temperature, 0.494-40.00 μM, read-out: CHO-hERG Activity Range

T1 sequence (Q12809 whole entry): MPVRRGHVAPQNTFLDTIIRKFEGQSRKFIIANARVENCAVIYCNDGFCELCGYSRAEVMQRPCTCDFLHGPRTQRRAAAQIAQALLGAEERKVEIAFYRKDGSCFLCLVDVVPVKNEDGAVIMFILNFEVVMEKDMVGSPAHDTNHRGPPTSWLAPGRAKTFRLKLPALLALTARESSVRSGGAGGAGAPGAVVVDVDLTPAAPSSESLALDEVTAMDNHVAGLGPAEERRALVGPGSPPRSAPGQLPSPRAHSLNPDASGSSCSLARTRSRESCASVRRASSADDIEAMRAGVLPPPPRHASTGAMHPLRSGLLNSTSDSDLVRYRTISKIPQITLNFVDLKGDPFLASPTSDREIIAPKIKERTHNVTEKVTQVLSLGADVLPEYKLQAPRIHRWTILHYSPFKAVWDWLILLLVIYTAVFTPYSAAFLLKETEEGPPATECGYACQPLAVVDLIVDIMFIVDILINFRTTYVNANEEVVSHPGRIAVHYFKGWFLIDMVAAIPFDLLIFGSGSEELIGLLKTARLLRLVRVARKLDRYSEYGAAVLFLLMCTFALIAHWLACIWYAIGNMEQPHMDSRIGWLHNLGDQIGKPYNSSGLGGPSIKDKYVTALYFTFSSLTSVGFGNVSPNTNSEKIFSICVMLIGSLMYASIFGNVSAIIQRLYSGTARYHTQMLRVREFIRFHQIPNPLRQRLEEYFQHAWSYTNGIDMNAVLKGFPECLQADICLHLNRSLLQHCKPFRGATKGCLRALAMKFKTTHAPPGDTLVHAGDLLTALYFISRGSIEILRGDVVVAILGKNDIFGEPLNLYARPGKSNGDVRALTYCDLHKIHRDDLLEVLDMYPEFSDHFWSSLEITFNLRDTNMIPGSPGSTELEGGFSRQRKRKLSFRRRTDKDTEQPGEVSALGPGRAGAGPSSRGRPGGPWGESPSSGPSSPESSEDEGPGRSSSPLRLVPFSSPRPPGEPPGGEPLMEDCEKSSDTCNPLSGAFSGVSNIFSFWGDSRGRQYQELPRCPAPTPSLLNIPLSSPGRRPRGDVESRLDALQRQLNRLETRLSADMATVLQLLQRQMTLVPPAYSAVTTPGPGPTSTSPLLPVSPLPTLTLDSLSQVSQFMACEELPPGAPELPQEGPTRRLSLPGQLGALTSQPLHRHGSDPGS
T2 sequence (P08546 whole entry): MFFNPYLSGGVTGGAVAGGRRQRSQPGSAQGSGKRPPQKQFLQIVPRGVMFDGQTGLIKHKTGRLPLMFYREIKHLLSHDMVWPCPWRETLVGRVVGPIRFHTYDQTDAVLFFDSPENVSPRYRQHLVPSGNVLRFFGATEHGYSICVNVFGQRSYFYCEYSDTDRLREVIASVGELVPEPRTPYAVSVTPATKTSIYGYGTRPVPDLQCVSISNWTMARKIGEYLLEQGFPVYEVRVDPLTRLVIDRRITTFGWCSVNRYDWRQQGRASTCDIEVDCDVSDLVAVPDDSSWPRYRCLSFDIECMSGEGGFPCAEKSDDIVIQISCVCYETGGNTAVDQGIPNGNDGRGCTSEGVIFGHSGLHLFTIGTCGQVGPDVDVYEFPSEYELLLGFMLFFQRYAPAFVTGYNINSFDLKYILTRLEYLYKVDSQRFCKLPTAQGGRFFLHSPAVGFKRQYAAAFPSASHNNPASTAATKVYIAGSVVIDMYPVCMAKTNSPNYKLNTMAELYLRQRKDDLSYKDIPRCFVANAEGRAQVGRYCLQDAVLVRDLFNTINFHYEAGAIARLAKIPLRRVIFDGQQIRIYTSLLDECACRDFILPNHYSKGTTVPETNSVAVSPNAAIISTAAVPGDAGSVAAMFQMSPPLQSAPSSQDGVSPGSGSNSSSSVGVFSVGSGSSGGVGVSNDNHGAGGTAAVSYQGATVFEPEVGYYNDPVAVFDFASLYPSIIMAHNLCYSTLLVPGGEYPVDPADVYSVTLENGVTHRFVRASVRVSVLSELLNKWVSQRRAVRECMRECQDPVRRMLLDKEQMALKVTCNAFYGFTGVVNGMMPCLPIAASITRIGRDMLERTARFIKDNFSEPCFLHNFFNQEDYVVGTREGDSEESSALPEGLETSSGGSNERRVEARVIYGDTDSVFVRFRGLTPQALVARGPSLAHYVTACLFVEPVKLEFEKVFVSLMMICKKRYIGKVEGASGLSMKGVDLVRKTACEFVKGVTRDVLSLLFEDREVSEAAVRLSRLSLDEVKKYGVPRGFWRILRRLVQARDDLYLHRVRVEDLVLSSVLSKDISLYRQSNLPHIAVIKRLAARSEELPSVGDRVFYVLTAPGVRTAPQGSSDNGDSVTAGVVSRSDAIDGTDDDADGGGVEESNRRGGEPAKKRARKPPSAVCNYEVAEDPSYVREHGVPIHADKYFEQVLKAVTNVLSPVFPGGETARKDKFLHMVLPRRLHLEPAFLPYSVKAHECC

Structure (SMILES) | CC50 at 4 days [1] [µM] | IC50 (hERG potassium channel; [4]) [µM] | IC50 [2] [µM] | EC50 [3] [µM] | IC50 (hERG potassium channel) [µM]
CC1(F)CN(C(=O)Cn2c(=O)c(C(=O)NCc3ccc(Cl)cc3)cc3nc(N4CCN(CCNS(C)(=O)=O)C4=O)cnc32)C1 [Compound 16, N-[(4-chlorophenyl)methyl]-5-[2-(3-fluoro-3-methylazetidin-1-yl)-2-oxoethyl]-2-(3-{2-[(methanesulfonyl)amino]ethyl}-2-oxoimidazolidin-1-yl)-6-oxo-5,6-dihydropyrido[2,3-b]pyrazine-7-carboxamide] | > 40 | > 10 | < 1 | > 1 | –
CC(=O)NCCN1CCN(c2cnc3c(cc(C(=O)NCc4ccc(Cl)cc4)c(=O)n3CC(=O)N3CC(C)(F)C3)n2)C1=O [Compound 19] | > 40 | > 10 | < 1 | > 1 | –
CN(C)C(=O)CN1CCN(c2cnc3c(cc(C(=O)NCc4ccc(Cl)cc4)c(=O)n3CC(=O)N3CC(C)(F)C3)n2)C1=O [Compound 21] | > 40 | > 10 | < 1 | < 1 | –
CC(=O)N(C)CCN1CCN(c2cnc3c(cc(C(=O)NCc4ccc(Cl)cc4)c(=O)n3CC(=O)N3CC(C)(F)C3)n2)C1=O [Compound 22, 2-(3-{2-[acetyl(methyl)amino]ethyl}-2-oxoimidazolidin-1-yl)-N-[(4-chlorophenyl)methyl]-5-[2-(3-fluoro-3-methylazetidin-1-yl)-2-oxoethyl]-6-oxo-5,6-dihydropyrido[2,3-b]pyrazine-7-carboxamide] | > 40 | > 10 | < 1 | > 1 | –
CC1(F)CN(C(=O)Cn2c(=O)c(C(=O)NCc3ccc(Cl)cc3)cc3nc(N4CCN(CC(=O)NC#N)C4=O)cnc32)C1 [Compound 26, N-[(4-chlorophenyl)methyl]-2-{3-[2-(cyanoamino)-2-oxoethyl]-2-oxoimidazolidin-1-yl}-5-[2-(3-fluoro-3-methylazetidin-1-yl)-2-oxoethyl]-6-oxo-5,6-dihydropyrido[2,3-b]pyrazine-7-carboxamide] | > 40 | > 10 | < 1 | > 1 | –
CC1(F)CN(C(=O)Cn2c(=O)c(C(=O)NCc3ccc(Cl)cc3)cc3nc(N4CCN(Cc5nnn[nH]5)C4=O)cnc32)C1 [Compound 27, N-[(4-chlorophenyl)methyl]-5-[2-(3-fluoro-3-methylazetidin-1-yl)-2-oxoethyl]-6-oxo-2-{2-oxo-3-[(1H-tetrazol-5-yl)methyl]imidazolidin-1-yl}-5,6-dihydropyrido[2,3-b]pyrazine-7-carboxamide] | > 40 | > 10 | < 1 | > 1 | –
CC1(F)CN(C(=O)Cn2c(=O)c(C(=O)NCc3ccc(Cl)cc3)cc3nc(N4CCN(CC(=O)N5CCC5)C4=O)cnc32)C1 [Compound 28, 2-{3-[2-(azetidin-1-yl)-2-oxoethyl]-2-oxoimidazolidin-1-yl}-N-[(4-chlorophenyl)methyl]-5-[2-(3-fluoro-3-methylazetidin-1-yl)-2-oxoethyl]-6-oxo-5,6-dihydropyrido[2,3-b]pyrazine-7-carboxamide] | > 40 | > 10 | < 1 | < 1 | –
NCCN1CCN(c2cnc3c(cc(C(=O)NCc4ccc(Cl)cc4)c(=O)n3CC(=O)N3CC4(CC4)C3)n2)C1=O [Compound 36, 2-[3-(2-aminoethyl)-2-oxoimidazolidin-1-yl]-5-[2-(5-azaspiro[2.3]hexan-5-yl)-2-oxoethyl]-N-[(4-chlorophenyl)methyl]-6-oxo-5,6-dihydropyrido[2,3-b]pyrazine-7-carboxamide] | 18 | – | < 1 | < 1 | > 10
